From ChEMBL document CHEMBL3430912, “GSK Tres Cantos Anti-Kinetoplastid Screening (TCAKS) Data”

Experiments:
Trypanosoma cruzi [1] = assay: GSK_TCAKS: pIC50 Trypanosoma cruzi viability assay using beta-GAL activity. This assay was run at single shot at 5uM compound concentration per well. The biological reagents consisted of NIH-3T3 host cells and trypomastigotes parasitic cells; both cell types were set to a 3.3 * 10^5 cells/mL dilution in assay DMEM by means of a CASY cell counter device using a 60um capillary. 6 uL of the mixture were dispensed per well (about 1 * 10^3 host-cells and 1 * 10^3 parasites) with a Multidrop Combi dispenser. […] In all wells, the percentage of DMSO never exceeded 0.5%. Plates incubated for four days at 37C, 5% CO2. The substrate used for the assay fluorescence intensity (FLINT) readout was resorufin-beta-D-galactopiranoside (Sigma-Aldrich) at 5uM per well. It was diluted in PBS supplemented with the soft detergent Igepal (Fluka).; type: functional, organism-based, Mus musculus; details: Tulahuen, NIH3T3
Trypanosoma cruzi [2] = assay: (§1) GSK_TCAKS: pIC50 Trypanosoma cruzi Imaging: Infected Cells. […] Cells were then washed once with PBS before infection. T. cruzi trypomastigotes, collected at days 5 to 8 after infection from LLC-MK2 parasite infected cultures, were allowed to swim out for 4h at 37C from a centrifuged pellet (2,500 rpm/10 min/room temperature). Trypomastigotes were then collected and counted in a CASY Cell Counter. Trypomastigotes, in supplemented DMEM, were added to H9c2 cultures in a multiplicity of infection of 1 and incubated for 18 h. Cells were washed once with PBS before incubation of the infected H9c2 monolayer with trypsin (Life-Technologies) to detach cells from the flask. Cells were counted in a CASY Cell Counter using a 150 um capillary and their density set at 5 * 10^4 cells per mL in supplemented assay DMEM. Infected H9c2 were dispensed into 384-well poly-lysine coated assay plates at 50uL per well using a Multidrop Combi dispenser. After seeding them, the plates were incubated at 37C, 5% CO2 for 72h. Cultures were then fixed and stained by addition of 50 uL of a solution containing 8% formaldehyde and 4 uM DRAQ5 DNA dye (BioStatus, UK) per well. […] Five images were collected per well for reliable statistical analysis. Automated image analysis was performed with a script developed on Acapella High Content Imaging and Analysis Software (PerkinElmer). Output: percentage of infected cells per well as a second infection marker.; type: functional, organism-based, Rattus norvegicus; details: H9c2, 4 h
Trypanosoma cruzi [3] = assay: GSK_TCAKS: pIC50 Trypanosoma cruzi Imaging: Amastigotes/Cell. […] Cells were then washed once with PBS before infection. T. cruzi trypomastigotes, collected at days 5 to 8 after infection from LLC-MK2 parasite infected cultures, were allowed to swim out for 4h at 37C from a centrifuged pellet (2,500 rpm/10 min/room temperature). Trypomastigotes were then collected and counted in a CASY Cell Counter. Trypomastigotes, in supplemented DMEM, were added to H9c2 cultures in a multiplicity of infection of 1 and incubated for 18 h. Cells were washed once with PBS before incubation of the infected H9c2 monolayer with trypsin (Life-Technologies) to detach cells from the flask. Cells were counted in a CASY Cell Counter using a 150 um capillary and their density set at 5 * 10^4 cells per mL in supplemented assay DMEM. Infected H9c2 were dispensed into 384-well poly-lysine coated assay plates at 50uL per well using a Multidrop Combi dispenser. After seeding them, the plates were incubated at 37C, 5% CO2 for 72h. Cultures were then fixed and stained by addition of 50 uL of a solution containing 8% formaldehyde and 4 uM DRAQ5 DNA dye (BioStatus, UK) per well. […] Five images were collected per well for reliable statistical analysis. Automated image analysis was performed with a script developed on Acapella High Content Imaging and Analysis Software (PerkinElmer). Output: number of amastigotes per cell as infection level measurement.; type: functional, organism-based, Rattus norvegicus; details: H9c2, 4 h
Trypanosoma cruzi [4] = assay: as §1, with “H2C9” for “Trypanosoma cruzi”, “H9c2 Host Cardiomyocytes.” for “Infected Cells.”, “Number” for “percentage”, “H9c2 Host Cardiomyocytes nuclei to determine drug-related cytotoxicity.” for “infected cells per well as a second infection marker.”; type: functional, organism-based, Rattus norvegicus; details: H9c2, 4 h
Leishmania donovani [5] = assay: GSK_TCAKS: pIC50 Leishmania donovani viability assay using fluorescence intensity. Assay plates (1536-well) were prepared by adding 30nL per well of compound. For single shot assay, the final compound concentration was 5uM. […] Briefly, eGFP LdBOB axenic amastigotes were harvested, fixed and counted in a CASY cell counter (Roche-Applied Science). A final concentration of 1.5 * 10^5 cells per well were prepared in amastigote media containing 500 U/mL penicillin/streptomycin (Invitrogen) and 6uL was dispensed to each experimental well using a Multidrop Combi dispenser (Thermo Scientific). 6uL of assay media was dispensed to control columns used as reference for 100% compound response. Following incubation for 72 h at 37C, 5% CO2, 2 uL of resazurin was added to each well at a final concentration of 0.5 mM in phosphate buffered saline (PBS) with IGEPAL (Sigma-Aldrich), 0.05% (v/v).; type: functional, organism-based
Leishmania donovani [6] = assay: (§2) GSK_TCAKS: pIC50 Leishmania donovani Imaging: Infected Macrophages. Assay plates (384-well) were prepared by adding 250nL of compound to each well. For single shot assay, the final compound concentration was 5 uM. […] Automated image analysis was performed with a script developed on Acapella High Content Imaging and Analysis Software (PerkinElmer). Output: Percent of infected macrophage cells were reported for each well.; type: functional, organism-based, Homo sapiens; details: THP-1
Leishmania donovani [7] = assay: as §2, with “Amastigotes/Macrophages.” for “Infected Macrophages.”, “Average number” for “Percent”, “amastigotes per” for “infected”, “cell” for “cells”; type: functional, organism-based, Homo sapiens; details: THP-1
Leishmania donovani [8] = assay: as §2, with “THP-1 Host” for “Infected”, “THP-1 cell count” for “Percent of infected macrophage cells”; type: functional, organism-based, Homo sapiens
[9] = tested on: Trypanosoma brucei brucei; assay: GSK_TCAKS: pIC50 Trypanosoma brucei viability assay using fluorescence intensity. Assay plates (1536-well) were prepared by dispensing 25nL of compound solution per well using an Echo acoustic dispenser (Labcyte).; type: functional, organism-based; details: Lister 427, 2 h
[10] = tested on: Trypanosoma brucei brucei; assay: GSK_TCAKS: pIC50 Trypanosoma brucei viability assay using luminiscence. Assay plates (1536-well) were prepared. T. brucei cultures were harvested and counted in a CASY cell counter. A parasite suspension was prepared at a final concentration of 5 * 10^4 cells/mL in complete HMI9 medium and 6uL was dispensed to all wells containing compounds using a Multidrop Combi dispenser. 6uL of HMI9 media with 0.4% DMSO were dispensed to control columns. Plates were incubated for 24 h at 37C, 5% CO2 then tempered for 10 min at room temperature. ATP content was quantified by adding 4 uL of CellTiter-Glo Reagent (Promega) according to the manufacturer's instructions. Luminescence was measured using a ViewLux.; type: functional, organism-based; details: Lister 427, CASY
[11] = GSK_TCAKS: pIC50 HepG2 human cell line viability assay using luminiscence. […] Seeding density was checked to ensure that new mono-layers were not more than 50% confluent at the time of harvesting. Cell suspension was added to 500 mL of the same medium at a final density of 1.2 * 10^5 cells/mL. This cell suspension was dispensed (25 uL, 3000 cells per well) into 384-well clear-bottom plates using a Multidrop Combi dispenser. Prior to addition of the cell suspension, the screening compounds (250 nL) were pre-dispensed into the plates with an Echo liquid handler. Plates were incubated for 48 h at 37C, 5% CO2. After incubation, plates equilibrated at room temperature for 30 min before proceeding to develop the luminescent signal. The signal developer, CellTiter-Glo Reagent, was allowed to equilibrate at room temperature for 30 min and added to the plates (25uL per well) using a Multidrop Combi dispenser. Plates were left for 10 min at room temperature for stabilization and then read using a ViewLux.; type: toxicity, cell-based
[12] = target: Sterol 14-alpha demethylase (Trypanosoma cruzi (strain CL Brener), UniProt Q7Z1V1); assay: GSK_TCAKS: pIC50 CYP51 from Trypanosoma cruzi.; type: functional
Sterol 14-alpha demethylase, sequence (Q7Z1V1 whole entry): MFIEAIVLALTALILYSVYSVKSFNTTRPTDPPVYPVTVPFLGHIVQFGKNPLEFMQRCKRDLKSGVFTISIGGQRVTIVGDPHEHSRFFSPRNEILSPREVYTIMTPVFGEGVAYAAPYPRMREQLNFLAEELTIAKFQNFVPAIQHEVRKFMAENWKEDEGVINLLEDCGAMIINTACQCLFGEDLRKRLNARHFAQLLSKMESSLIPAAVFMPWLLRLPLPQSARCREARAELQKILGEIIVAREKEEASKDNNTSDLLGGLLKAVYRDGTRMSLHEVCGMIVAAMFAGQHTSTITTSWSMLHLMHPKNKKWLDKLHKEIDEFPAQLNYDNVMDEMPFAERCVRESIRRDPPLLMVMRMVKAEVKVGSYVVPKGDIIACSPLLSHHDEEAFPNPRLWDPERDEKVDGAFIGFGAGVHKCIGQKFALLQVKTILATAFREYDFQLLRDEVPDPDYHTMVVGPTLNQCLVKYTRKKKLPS

SMILES	IC50 (Trypanosoma cruzi [1]) [µM]	IC50 (Trypanosoma cruzi [2]) [µM]	IC50 (Trypanosoma cruzi [3]) [µM]	IC50 (Trypanosoma cruzi [4]) [µM]	IC50 (Leishmania donovani [5]) [µM]	IC50 (Leishmania donovani [6]) [µM]	IC50 (Leishmania donovani [7]) [µM]	IC50 (Leishmania donovani [8]) [µM]	IC50 [9] [µM]	IC50 [10] [µM]	IC50 at 48 h [11] [µM]	IC50 [12] [µM]
COc1ccc(C2=NCC(CSc3nnc(-c4ccc5c(c4)OCO5)o3)S2)cc1 (stereo unspecified)	2.51	0.501	0.316	> 50.1	1	1	0.398	> 50.1	10	> 39.8	> 100	10
CCc1cccc(CC)c1-n1c(SCC(=O)NC(=O)NCc2ccco2)nnc1-c1cccnc1	12.6	12.6	7.94	> 50.1	> 50.1	> 50.1	> 50.1	> 50.1	0.398	0.794	> 100	1
C[C@@H](Oc1cc(-n2cnc3ccc(CC(O)CO)cc32)sc1C(N)=O)c1ccccc1Cl (stereo partly specified)	3.16	50.1	12.6	0.126	25.1	39.8	31.6	39.8	0.631	0.794	> 100	25.1
O=C(c1ccccc1)N1CCC(C(=O)N2CCC(Oc3ccccc3Cl)CC2)CC1	2	31.6	25.1	> 50.1	> 50.1	> 50.1	31.6	> 50.1	0.501	1	> 100	20
CCCc1cc(N)nc(-c2cc(CCC)cc(N)n2)c1	2	0.631	0.501	0.2	20	2.51	1.58	20	3.16	7.94	31.6	> 100
CCOc1cc(NCCCN2CCN(C)CC2)c2ncccc2c1	1.78	1.26	1	31.6	39.8	1.26	0.794	6.31	12.6	20	31.6	> 100
Cc1cc(-c2cccc3ccccc23)nc2nc(N)nc(N)c12	39.8	> 50.1	31.6	> 50.1	2	5.01	1	50.1	31.6	20	50.1	> 100
N#Cc1ccc(Br)cc1[N+](=O)[O-]	0.251	0.794	0.0631	39.8	7.94	20	12.6	25.1	0.158	0.2	20	50.1
COc1ccc([N+](=O)[O-])cc1NC(=O)c1cc(Cl)ccc1O	31.6	15.8	7.94	> 50.1	7.94	2	1.58	10	25.1	25.1	10	> 100
O=C(Nc1ccccc1C(=O)Nc1ccccn1)c1ccco1	> 50.1	> 50.1	> 50.1	> 50.1	> 50.1	> 50.1	> 50.1	> 50.1	0.251	0.501	> 100	> 100
COc1cccc(Nc2cc(C)nc(-c3ccccn3)n2)c1	3.16	12.6	7.94	5.01	3.98	2	1.26	> 50.1	> 39.8	> 39.8	50.1	> 100
CCCCn1c(=O)c2c(N)onc2n(CCCC)c1=O	25.1	31.6	25.1	25.1	> 50.1	> 50.1	31.6	> 50.1	0.631	0.501	50.1	79.4
Nc1nccc(-c2csc(Nc3ccc(Cl)cc3)n2)n1	1.26	> 50.1	> 50.1	2	3.98	1	1	> 50.1	> 39.8	> 39.8	> 100	1.26
NS(=O)(=O)c1ccc(Nc2nccc(-c3cnn4ncccc34)n2)cc1	2.51	15.8	0.794	0.316	0.794	2	1	0.251	0.0794	0.158	> 100	> 100
CC(=O)Nc1ccc(Nc2nccc(-c3cnn4ncccc34)n2)cc1C(F)(F)F	0.0501	0.501	0.2	0.0631	0.2	0.0251	0.0158	0.01	0.0316	0.0501	> 100	31.6
O=C1OCc2ccc(Nc3nccc(-c4cnn5ncccc45)n3)cc21	0.0251	0.0631	0.0316	0.0251	0.0631	0.0158	0.0126	0.00794	0.00398	0.02	> 100	> 100
Fc1ccc(Nc2nc(-c3ccccn3)cs2)cc1	2.51	5.01	5.01	1	20	10	6.31	> 50.1	25.1	25.1	> 100	15.8
Oc1c(-c2nnc(CCc3ccccc3)[nH]2)ncc2cccnc12	0.2	0.2	0.2	15.8	0.316	3.98	3.16	20	0.794	1.58	39.8	> 100
